Test results reported in PubChem BioAssay (NCI).
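Where inhibition never reached the appropriate level, the endpoint shown equals the highest concentration tested. Otherwise, values were interpolated linearly from a five-concentration, 48-hour dose response in 96-well plates. At the GI50, growth is halved. TGI: concentration producing complete growth inhibition.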

Experiments:
Assay in all cases: inhibition of tumour cell growth, NCI panel, 48 h
COLO 205 colon = system: COLO 205 colon
EKVX NSCLC = system: EKVX NSCLC
HCT-116 colon = system: HCT-116 colon
K-562 leukemia = system: K-562 leukemia
MALME-3M melanoma = system: MALME-3M melanoma
MOLT-4 leukemia = system: MOLT-4 leukemia
NCI-H226 lung = system: NCI-H226 lung
U251 CNS = system: U251 CNS
UACC-257 melanoma = system: UACC-257 melanoma
UO-31 renal = system: UO-31 renal

Row | SMILES | GI50 (COLO 205 colon) [µM] | TGI (COLO 205 colon) [µM] | GI50 (EKVX NSCLC) [µM] | TGI (EKVX NSCLC) [µM] | GI50 (HCT-116 colon) [µM] | TGI (HCT-116 colon) [µM] | GI50 (K-562 leukemia) [µM] | TGI (K-562 leukemia) [µM] | GI50 (MALME-3M melanoma) [µM] | TGI (MALME-3M melanoma) [µM] | TGI (MOLT-4 leukemia) [µM] | GI50 (NCI-H226 lung) [µM] | TGI (NCI-H226 lung) [µM] | GI50 (U251 CNS) [µM] | GI50 (UACC-257 melanoma) [µM] | TGI (UACC-257 melanoma) [µM] | GI50 (UO-31 renal) [µM] | TGI (UO-31 renal) [µM] | TGI (U251 CNS) [µM] | GI50 (MOLT-4 leukemia) [µM]
1 | Cc1cc(Cl)ccc1Nc1nc(C(F)(F)F)ccc1C(=O)N/N=C/c1ccc([N+](=O)[O-])cc1 | 1.75 | 3.64 | 2.37 | > 29.7 | 1.85 | > 23.9 | 1.43 | > 24.8 | 1.68 | 7.09 | > 20 | 1.58 | 4.27 | 0.953 | 1.38 | 5.11 | 1.48 | 6.93 | – | –
2 | CC(C)c1cccc(C(C)C)c1NC(=O)/C(CC(=O)CC(c1ccccc1)c1c(O)c2ccccc2oc1=O)=N/O (centres undefined) | – | > 100 | – | > 100 | – | > 100 | – | > 100 | – | > 100 | > 100 | – | > 100 | – | – | > 100 | – | > 100 | > 100 | –
3 | OC1(c2ccccc2)OC(C#Cc2ccccc2)(c2ccccc2)c2ccccc21 (centres undefined) | – | 5.38 | – | 11.9 | – | 3.07 | – | > 100 | – | 22.7 | 8.01 | – | 7.98 | – | – | 20.9 | – | 4.05 | 15.1 | –
4 | COc1cc(-c2cn(-c3ccc(Cl)c(Cl)c3)c(=O)n2C(C)=O)cc(OC)c1OC | 7.9 | 21.7 | 2.6 | 8.26 | 13.7 | 27.9 | 16.1 | > 100 | 15.3 | 33.3 | 31.6 | 7.96 | 25.9 | 8.86 | 7.51 | 23.2 | 12 | 27.4 | 21.3 | 14.7
5 | O=C(c1ccncc1)n1nc(-c2ccccc2)c(N=Nc2ccccc2[N+](=O)[O-])c1-c1ccccc1 | – | > 100 | – | > 100 | – | > 100 | – | > 100 | – | > 100 | > 100 | – | – | – | – | > 100 | – | 79.9 | – | –
6 | Nc1ccccc1C#C/C=C\C#Cc1ccccc1[N+](=O)[O-] | 4.38 | 22 | 2.51 | 17.8 | 4.31 | 36 | 0.533 | 5.93 | – | – | > 100 | – | – | 3.72 | 4.98 | 20 | 10.5 | 28.4 | 18.9 | 27.7
7 | COC1OC(CO)C(O)C1N (centres undefined) | – | > 100 | – | > 100 | – | > 100 | – | > 100 | – | > 100 | > 100 | – | > 100 | – | – | > 100 | – | – | > 100 | –
8 | CC1=C(C(=O)Nc2cccc(Cl)c2)C(c2ccccc2F)C(C(=O)Nc2cccc(Cl)c2)=C(C)N1 | – | 26.3 | – | 27.5 | – | – | – | 24.6 | – | 31.8 | 14.7 | – | 26 | – | – | 22.3 | – | 20.8 | 37.7 | –
9 | CN(C)CC1CCC/C1=N\O (centres undefined) | – | > 100 | – | – | – | > 100 | – | > 100 | – | – | > 100 | – | > 100 | – | – | > 100 | – | > 100 | > 100 | –
10 | Cc1ccccc1C1=C(C(=O)Nc2ccc(Cl)c(Cl)c2)NC(=S)NC1N (centres undefined) | – | > 100 | – | > 100 | – | > 100 | – | > 100 | – | > 100 | > 100 | – | – | – | – | > 100 | – | > 100 | > 100 | –
11 | CCOc1cc(/C=N\Nc2nnc(C)n2N)c(C)cc1N(CCCl)CCCl | 0.375 | 1.89 | – | – | 0.56 | 13.2 | 0.646 | > 100 | 0.377 | 6.77 | 8.58 | 1.54 | 14.7 | 0.747 | 0.396 | 3.6 | 1.3 | 11.8 | > 28.5 | 0.876
12 | Cc1c(C(=O)NCCN2CCOCC2)cn2ncnc(Oc3ccc(NC(=O)Nc4ccc(Cl)c(C(F)(F)F)c4)cc3)c12 | – | – | – | – | 0.711 | 2.1 | – | – | 1.09 | 2.76 | 2.6 | – | – | 1.79 | – | – | 2.18 | 3.83 | 5.36 | 0.433
13 | C[C@]12CCCC(=O)C1(O)C[C@H](C(=O)O)CC2 (some centres undefined) | – | > 100 | – | – | – | > 100 | – | > 100 | – | > 100 | > 100 | – | > 100 | – | – | > 100 | – | > 100 | > 100 | –
14 | COC(=O)c1ccccc1NC(=O)C(=O)NNC(=O)c1ccncc1 | – | > 100 | – | > 100 | – | > 100 | – | – | – | > 100 | > 100 | – | > 100 | – | – | > 100 | – | > 100 | – | –
15 | CCOc1cccc(/C=N/NC(=O)C(=O)Nc2cccc(C(F)(F)F)c2)c1O | 2.43 | > 100 | – | – | 1.02 | > 100 | 2 | > 100 | 4.35 | 64.2 | 22 | 3.96 | 50.1 | 1.46 | 2.57 | 25 | 0.63 | 18.5 | > 100 | 1.35
16 | NC(=S)NNc1c([N+](=O)[O-])cnn(-c2ccccc2)c1=O | – | 26.7 | – | – | – | 22.1 | – | 15.9 | – | 33.7 | 62.5 | – | 35 | – | – | 38.8 | – | 38 | 30.7 | –
17 | CCOC(=O)/C=C1\CCCC12OCCO2 | – | > 100 | – | – | – | > 100 | – | > 100 | – | > 100 | > 100 | – | > 100 | – | – | > 100 | – | > 100 | > 100 | –
18 | O=C(N/N=C(/CCN1CCCC1)CC(c1ccccc1)c1c(O)c2ccccc2oc1=O)c1ccncc1 (centres undefined) | – | – | – | > 100 | – | > 100 | – | > 100 | – | > 100 | – | – | > 100 | – | – | > 100 | – | > 100 | > 100 | –
19 | CN(C)/N=C(/c1nc2ccc(Cl)cc2[nH]c1=O)C(O)c1ccc(C(O)/C(=N\N(C)C)c2nc3ccc(Cl)cc3[nH]c2=O)cc1 (centres undefined) | – | > 100 | – | > 100 | – | > 100 | – | > 100 | – | > 100 | > 100 | – | – | – | – | > 100 | – | > 100 | – | –
